Results on ten molecules are retold here after US9353082B2, “Pharmaceutical compounds” (BIAL—PORTELA & CA, S.A., priority 2008, dated 2016).

Assay [1] deals with T1, FAAH (Rattus norvegicus, UniProt P97612).
T1 construct: Frozen brains (without cerebellum) from Wistar rats were used; from tissue; host or cells: Wistar rat brain (without cerebellum), washed membrane pellets
T1 sequence (P97612 1-579): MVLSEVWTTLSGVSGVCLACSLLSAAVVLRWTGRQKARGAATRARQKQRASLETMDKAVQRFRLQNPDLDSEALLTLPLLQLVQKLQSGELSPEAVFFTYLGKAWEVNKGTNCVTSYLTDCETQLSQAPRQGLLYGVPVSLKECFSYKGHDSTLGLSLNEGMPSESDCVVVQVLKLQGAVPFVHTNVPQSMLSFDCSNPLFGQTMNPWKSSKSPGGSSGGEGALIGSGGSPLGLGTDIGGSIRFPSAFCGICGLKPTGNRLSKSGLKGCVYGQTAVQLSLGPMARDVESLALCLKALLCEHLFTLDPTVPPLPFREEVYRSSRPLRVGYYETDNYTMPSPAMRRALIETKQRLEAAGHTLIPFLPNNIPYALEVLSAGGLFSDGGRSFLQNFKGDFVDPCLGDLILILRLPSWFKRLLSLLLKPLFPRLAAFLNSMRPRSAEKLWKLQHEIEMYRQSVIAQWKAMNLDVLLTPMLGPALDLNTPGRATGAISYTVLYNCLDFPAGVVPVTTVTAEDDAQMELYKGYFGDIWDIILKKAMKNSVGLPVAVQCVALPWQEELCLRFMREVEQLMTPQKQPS
Kind of assay: In vitro FAAH activity in rat brain membranes, 3H-AEA substrate, % of control. It counts as biochemical, Wistar rats. The note with it: 100 nM test compound, low value = strong inhibitor. Put shortly:
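Wistar rat brain membranes (5 μg protein) preincubated 15 min at 37 °C with compound at 10 μM or 0.1 μM (0.1% DMSO), then 2 μM AEA including 3H-AEA with 0.1% BSA, Tris pH 7.6, 10 min. 3H-ethanolamine counted after charcoal stop; % of no-compound control after blank subtraction.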

Assay [2] addresses T2, FAAH (Mus musculus, UniProt O08914).
T2 construct: A fragment of liver, left lung lobe and brain without cerebellum were removed; from tissue; host or cells: male NMRI mice; brain (without cerebellum) and liver homogenates
T2 sequence (O08914 1-579): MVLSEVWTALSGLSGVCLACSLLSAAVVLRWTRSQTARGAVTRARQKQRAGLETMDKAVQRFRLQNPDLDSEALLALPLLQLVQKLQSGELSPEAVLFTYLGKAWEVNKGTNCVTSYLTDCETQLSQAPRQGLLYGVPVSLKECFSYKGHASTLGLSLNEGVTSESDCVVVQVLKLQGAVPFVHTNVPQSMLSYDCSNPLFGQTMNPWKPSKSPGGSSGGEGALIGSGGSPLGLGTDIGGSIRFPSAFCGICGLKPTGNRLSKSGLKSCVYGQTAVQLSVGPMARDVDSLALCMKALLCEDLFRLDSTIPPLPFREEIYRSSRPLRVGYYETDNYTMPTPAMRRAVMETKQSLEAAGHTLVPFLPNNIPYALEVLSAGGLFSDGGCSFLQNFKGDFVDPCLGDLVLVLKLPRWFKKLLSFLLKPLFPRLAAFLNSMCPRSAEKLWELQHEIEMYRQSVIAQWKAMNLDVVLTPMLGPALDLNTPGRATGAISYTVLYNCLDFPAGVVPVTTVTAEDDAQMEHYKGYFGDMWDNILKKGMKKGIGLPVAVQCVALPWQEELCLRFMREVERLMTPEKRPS
Kind of assay: In vivo FAAH inhibition after oral dosing, remaining activity in brain homogenate (BRh, central nervous tissue). The arrangement: species or system NMRI mice. The note with it: brain homogenate, 3 mg/kg, 8 h. Put shortly:
(§1)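 Male NMRI mice, fasted overnight, got 30 or 3 mg/kg compound orally (0.5% CMC suspension or water) and were compared with vehicle controls. Brain (no cerebellum) and liver homogenates were incubated with 2 μM AEA plus 5 nM 3H-AEA at 37 °C, 10 min for brain and 7 min for liver. Remaining FAAH activity is % of vehicle after blank subtraction.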

In assay [3] the target is T2, FAAH. In words: In vivo FAAH inhibition after oral dosing, remaining activity in liver homogenate (LVh, peripheral tissue). On the set-up: species or system NMRI mice. The note with it: liver homogenate, 3 mg/kg, 8 h. Put shortly:
as §1

Take `CN(Cc1ccccc1)C(=O)n1cnc(-c2ccc(Oc3ccc(C(N)=O)cc3)cc2)n1` [Compound 151, N-benzyl-3-(4-(4-carbamoylphenoxy)phenyl)-N-methyl-1H-1,2,4-triazole-1-carboxamide]: the “In Vitro FAAH activity, 100 nM” value on FAAH [1] is on record as 0.4 % of control. The “In Vivo BRh 3 mg/kg 8 h, remaining FAAH activity” value at FAAH [2] is listed as 116.7 % of control. Besides, the “In Vivo LVh 3 mg/kg 8 h, remaining FAAH activity” value at FAAH [3] is 65.8 % of control.

Turning to `O=C(N1CCN(c2ccccc2)CC1)n1cnc(-c2cccs2)n1` [Compound 155, (4-phenylpiperazin-1-yl)(3-(thiophen-2-yl)-1H-1,2,4-triazol-1-yl)methanone], the “In Vitro FAAH activity, 100 nM” value on FAAH [1] is 0.4 % of control. Moreover, the “In Vivo BRh 3 mg/kg 8 h, remaining FAAH activity” value at FAAH [2] is 144.1 % of control. The “In Vivo LVh 3 mg/kg 8 h, remaining FAAH activity” value at FAAH [3] is 108.2 % of control.

Consider `CN(CCOCc1ccccc1)C(=O)n1nnc2ccccc21` [Compound 156, N-(2-(benzyloxy)ethyl)-N-methyl-1H-benzo[d][1,2,3]triazole-1-carboxamide], for which the “In Vitro FAAH activity, 100 nM” value on FAAH [1] was 0.1 % of control. Further, the “In Vivo BRh 3 mg/kg 8 h, remaining FAAH activity” value at FAAH [2] is 67.2 % of control. Also, the “In Vivo LVh 3 mg/kg 8 h, remaining FAAH activity” value on FAAH [3] is reported as 24.4 % of control.

For `COc1ccc(OCCN(C)C(=O)n2nnc3ccccc32)cc1` [Compound 157, N-(2-(4-methoxyphenoxy)ethyl)-N-methyl-1H-benzo[d][1,2,3]triazole-1-carboxamide], the “In Vitro FAAH activity, 100 nM” value on FAAH [1] is 0 % of control. Also, the “In Vivo BRh 3 mg/kg 8 h, remaining FAAH activity” value on FAAH [2] is 5.2 % of control. The “In Vivo LVh 3 mg/kg 8 h, remaining FAAH activity” value at FAAH [3] was 3.5 % of control.

Turning to `Cl.O=C(N1CCN(Cc2ccccc2)CC1)n1cnc(-c2cccs2)n1` [Compound 158, (4-benzylpiperazin-1-yl)(3-(thiophen-2-yl)-1H-1,2,4-triazol-1-yl)methanone hydrochloride], the “In Vitro FAAH activity, 100 nM” value at FAAH [1] is recorded as 0.3 % of control. Moreover, the “In Vivo BRh 3 mg/kg 8 h, remaining FAAH activity” value at FAAH [2] is 92 % of control. Further, the “In Vivo LVh 3 mg/kg 8 h, remaining FAAH activity” value on FAAH [3] is given as 85.6 % of control.

On to `CC1(C)COCN1C(=O)n1nnc2ccc(Br)cc21` [Compound 162, (6-bromo-1H-benzo[d][1,2,3]triazol-1-yl)(4,4-dimethyloxazolidin-3-yl)methanone], for which the “In Vitro FAAH activity, 100 nM” value at FAAH [1] is given as 0 % of control. For the same molecule, the “In Vivo BRh 3 mg/kg 8 h, remaining FAAH activity” value on FAAH [2] is on record as 0.9 % of control. Moreover, at FAAH [3], the “In Vivo LVh 3 mg/kg 8 h, remaining FAAH activity” value is recorded as 3.1 % of control.

Regarding `CC1(C)COCN1C(=O)n1nnc2ccc(-c3cccc(C(N)=O)c3)cc21` [Compound 163, 3-(3-(4,4-dimethyloxazolidine-3-carbonyl)-3H-benzo[d][1,2,3]triazol-5-yl)benzamide], the “In Vitro FAAH activity, 100 nM” value on FAAH [1] is 0.6 % of control. In addition, on FAAH [2], the “In Vivo BRh 3 mg/kg 8 h, remaining FAAH activity” value is 6.3 % of control. For the same molecule, at FAAH [3], the “In Vivo LVh 3 mg/kg 8 h, remaining FAAH activity” value is given as 2.4 % of control.

On to `O=C(N1CCS(=O)(=O)C1)n1nnc2ccccc21` [Compound 167, 1-[(1,1-dioxido-1,3-thiazolidin-3-yl)carbonyl]-1H-benzotriazole], for which the “In Vitro FAAH activity, 100 nM” value on FAAH [1] is recorded as 96.2 % of control. The “In Vivo BRh 3 mg/kg 8 h, remaining FAAH activity” value at FAAH [2] is 99.9 % of control. The “In Vivo LVh 3 mg/kg 8 h, remaining FAAH activity” value on FAAH [3] is listed as 104 % of control.

Regarding `O=C(N1CCN(c2ccccc2)CC1)n1cnc(Cc2ccccc2)n1` [Compound 182, (3-benzyl-1H-1,2,4-triazol-1-yl)(4-phenylpiperazin-1-yl)methanone], on FAAH [1], the “In Vitro FAAH activity, 100 nM” value is reported as 0.6 % of control. The “In Vivo BRh 3 mg/kg 8 h, remaining FAAH activity” value at FAAH [2] was 90.6 % of control. Also, the “In Vivo LVh 3 mg/kg 8 h, remaining FAAH activity” value on FAAH [3] is 111 % of control.

On to `CC1(C)COCN1C(=O)n1cnc(-c2ccc(F)cc2F)n1` [Compound 183, (3-(2,4-difluorophenyl)-1H-1,2,4-triazol-1-yl)(4,4-dimethyloxazolidin-3-yl)methanone], for which, on FAAH [1], the “In Vitro FAAH activity, 100 nM” value is listed as 102 % of control. Besides, the “In Vivo BRh 3 mg/kg 8 h, remaining FAAH activity” value at FAAH [2] is 92.4 % of control. For the same molecule, at FAAH [3], the “In Vivo LVh 3 mg/kg 8 h, remaining FAAH activity” value is reported as 78.1 % of control.
